Test results published in patent US8007800B2, “Methods for treating bone cancer pain by administering a nerve growth factor antagonist antibody” (Pfizer Inc., priority 2004, dated 2011).

Legend:
[1] = system: C3H/HeJ mice injected with NCTC 2472 osteolytic murine sarcoma cells into the femur; experiment: Example 2: murine sarcoma bone cancer pain model, ongoing and palpation-evoked pain behaviors; type: in vivo, mouse; settings: days 10 and 14, vs sarcoma+vehicle
[2] = target: human NGF (Homo sapiens, UniProt P01138); experiment: Binding affinity of Fab fragments to NGF (BIAcore surface plasmon resonance); settings: measured using Fab fragments
Experimental: The binding affinity of an anti-NGF antibody to NGF (such as hNGF) can be about 0.10 to about 1.0 nM, about 0.10 nM to about 0.80 nM, about 0.15 to about 0.75 nM and about 0.18 to about 0.72 nM. […] In some embodiment, the binding affinity is about 10 nM. In other embodiments, the binding affinity is less than about 10 nM. […] As is well known in the art, binding affinity can be expressed as KD, or dissociation constant, and an increased binding affinity corresponds to a decreased KD.
One way of determining binding affinity of antibodies to NGF is by measuring binding affinity of monofunctional Fab fragments of the antibody. To obtain monofunctional Fab fragments, an antibody (for example, IgG) can be cleaved with papain or expressed recombinantly. The affinity of an anti-NGF Fab fragment of an antibody can be determined by surface plasmon resonance (BIAcore3000™ surface plasmon resonance (SPR) system, BIAcore, INC, Piscaway N.J.). CM5 chips can be activated with N-ethyl-N′-(3-dimethylaminopropyl)-carbodiinide hydrochloride (EDC) and N-hydroxysuccinimide (NHS) according to the supplier's instructions. […] The concentrations of the Fab proteins are determined by ELISA and/or SDS-PAGE electrophoresis using a Fab of known concentration (as determined by amino acid analysis) as a standard. […] Equilibrium dissociation constant (KD) values are calculated as koff/kon. […]

human NGF, sequence (P01138 122-241): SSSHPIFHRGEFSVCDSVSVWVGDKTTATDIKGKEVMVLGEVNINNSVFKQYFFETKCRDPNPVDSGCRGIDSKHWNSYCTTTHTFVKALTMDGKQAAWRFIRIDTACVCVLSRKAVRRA

| Compound | ongoing and movement-evoked guarding behaviors ([1]; morphine sulfate 10 mg/kg i.p. 15 min prior to testing) | ongoing and movement-evoked guarding behaviors ([1]; morphine sulfate 30 mg/kg i.p. 15 min prior to testing) | Kd [2] [pM] |
| --- | --- | --- | --- |
| CN1CC[C@]23c4c5ccc(O)c4O[C@H]2[C@@H](O)C=C[C@H]3[C@H]1C5.O=S(=O)(O)O [morphine sulfate] | significantly reduced | significantly reduced | – |
| antibody E3: humanized mouse anti-NGF monoclonal antibody; human IgG2a constant region A330P331 to S330S331, kappa light chain, variable regions SEQ ID NO:1 and 2 | – | – | ~70 |
